Data set [1] deals with wild-type C57BL/6 mice on high fat/high sucrose diet. Briefly: In-vivo evaluation on high fat/high sucrose diabetogenic diet, 10 weeks (Example 10). The note with it: for fasting glucose levels: low dose 25 mg/kg/day. More on the design: species or system mouse. As to the method: ILY-4001 (FIG. 7) was evaluated as a PLA2 IB inhibitor in a set of experiments using wild-type mice and genetically deficient PLA2 (−/−) mice (also referred to herein as PLA2 knock-out (KO) mice). In these experiments, wild-type and PLA2 (−/−) mice were maintained on a high fat/high sucrose diet, details of which are described below.
Briefly, four groups were set up, each having six mice. Three of the groups included six wild-type PLA2 (+/+) mice in each group (eighteen mice total), and one of the groups included six genetically deficient PLA2 (−/−) mice. One of the wild-type groups was used as a wild-type control group, and was not treated with ILY-4001. The other two wild-type groups were treated with ILY-4001—one group at a lower dose (indicated as “L” in Table 1) of 25 mg/kg/day, and the other at a higher dose (indicated as “H” in Table 1) of 90 mg/kg/day. The group comprising the PLA2 (−/−) mice was used as a positive control group.
The experimental protocol used in this study was as follows. The four groups of mice, including wild type and isogenic PLA2 (−/−) C57BL/J mice were acclimated for three days on a low fat/low carbohydrate diet. After the three day acclimation phase, the animals were fasted overnight and serum samples taken to establish baseline plasma cholesterol, triglyceride, and glucose levels, along with baseline body weight. The mice in each of the treatment groups were then fed a high fat/high sucrose diabetogenic diet (Research Diets D12331). 1000 g of the high fat/high sucrose D12331 diet was composed of casein (228 g), DL-methionine (2 g), maltodextrin 10 (170 g), sucrose (175 g), soybean oil (25 g), hydrogenated coconut oil (333.5 g), mineral mix S10001 (40 g), sodium bicarbonate (10.5 g), potassium citrate (4 g), vitamin mix V10001 (10 g), and choline bitartrate (2 g). This diet was supplemented with ILY-4001 treatments such that the average daily dose of the compound ingested by a 25 g mouse was: 0 mg/kg/day (wild-type control group and PLA2 (−/−) control group); 25 mg/kg/day (low-dose wild-type treatment group), or 90 mg/kg/day (high-dose wild-type treatment group). The animals were maintained on the high fat/high sucrose diet, with the designated ILY-4001 supplementation, for a period of ten weeks.
Body weight measurements were taken for all animals in all treatment and control groups at the beginning of the treatment period and at 4 weeks and 10 weeks after initiation of the study. (See Example 10A). Blood draws were also taken at the beginning of the treatment period (baseline) and at 4 weeks and 10 weeks after initiation of the study, in order to determine fasting glucose (See Example 10B). Cholesterol and triglyceride levels were determined from blood draws taken at the beginning of the treatment (baseline) and at ten weeks. (See […]).

A short description of a further data set: Stability at low pH. Type of data set: physicochemical.
Data set [2] concerns the target T1, porcine group 1B PLA2 (pps PLA2) (Sus scrofa, UniProt P00592).
T1 construct: purchased
Description: Fluorimetric PPyrPM assay for group 1B PLA2 inhibition (Example 12). The class given is biochemical. The note with it: porcine pancreas secreted PLA2; read-out: ILYPSA IC50 pps PLA2. In a few lines:
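Porcine group 1B PLA2 hydrolysis of 4.2 uM PPyrPM vesicle solution (pre-mixing concentration) in 50 mM Tris-HCl pH 8.0, 50 mM KCl, 1 mM CaCl2 with BSA; inhibitors in 8-point threefold series from 15 uM. After 3 min at 37 °C, fluorescence read at ex 342/em 395 nm; duplicate IC50 by four-parameter fit.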

Where [3] appears, read: low and high doses (25 and 90 mg/kg/day), 10 weeks.

T1 sequence (P00592 23-146): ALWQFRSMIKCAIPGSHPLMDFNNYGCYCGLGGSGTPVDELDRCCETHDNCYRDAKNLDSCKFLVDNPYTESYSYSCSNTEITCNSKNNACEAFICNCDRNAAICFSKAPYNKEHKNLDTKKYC

On to `Cc1c(C(=O)C(N)=O)c2c(OCC(=O)O)cccc2n1Cc1ccccc1-c1ccccc1` [ILY-4001, 2-(3-(2-amino-2-oxoacetyl)-1-(biphenyl-2-ylmethyl)-2-methyl-1H-indol-4-yloxy)acetic acid], for which the body weight gain result in data set [1] (25 mg/kg/d and 90 mg/kg/d in diet, week 4 and week 10, vs wild-type control) is listed as “significantly reduced body weight gains”. Moreover, the “plasma levels of cholesterol” value in data set [1] (setting [3]) is reported as “substantially reduced”. Moreover, the “plasma levels of triglycerides” value in data set [1] (setting [3]) is reported as “substantially reduced”. Besides, the fasting glucose levels entry in data set [1] (week four) is “moderately beneficial effect”; in data set [1] (week ten) it was “beneficial effect was not observed”. The “stability at low pH” value in the data set “Stability at low pH” was “stable”.

What is called IC50 is the point on the concentration scale where inhibition reaches its midpoint. Regarding `Cc1c(C(=O)C(N)=O)c2c(OCC(=O)O)cccc2n1CCCCCCCCSCCCCCCCCSCCCCCCCCn1c(C)c(C(=O)C(N)=O)c2c(OCC(=O)O)cccc21` [ILY-V-24, 2,2′-(1,1′-(8,8′-(Octane-1,8-diylbis(sulfanediyl))bis(octane-8,1-diyl))bis(3-(2-amino-2-oxoacetyl)-2-methyl-1H-indole-4,1-diyl))bis(oxy)diacetic acid], the IC50 in data set [2] worked out at 800 nM.

The record behind these values is US20070135383A1, “Phospholipase inhibitors, including multi-valent phospholipase inhibitors, and use thereof, including as lumen-localized phospholipase inhibitors” (priority 2005, published 2007).
